Results published in patent US5624924A, “Quinobenzothiazine antineoplastic agents” (priority 1994, dated 1997).
Values after ≈ are worked out from the molar mass of the structure shown. Where a name gives a salt, the structure may show the parent alone. Read-outs that look alike come from different tables or passages of the source.

Columns and labels:
[1] = system: P388-ADR(0.1), ADRIAMYCIN-resistant variant of P388; experiment: In vitro cytotoxicity (MTT), P388-ADR(0.1); format: cell-based; conditions: Mus musculus, 72 h, inoculum grown with 0.1 mcg.ml ADRIAMYCIN, Table 2, ADR value marked *: single test
Procedure: (§1) Metabolic activity was measured by the cells' ability to reduce the tetrazolium dye, 3-(4,5-dimethylthiazol-2-yl)-2,5-diphenyltetrazolium bromide (MTT), to a quantifiable colored formasan derivative. Surviving cells reduce the MTT dye. The inhibitory concentrations of killing 50% of the cells (IC50 s) were calculated. Testing was in accord with the following protocol:
(§2) Test compounds and a reference antineoplastic agent, ADRIAMYCIN (doxorubicin hydrochloride), were dissolved in dimethyl sulfoxide (DMSO) and diluted, first with Earle's Balanced Salt Solution, followed by culture medium, to twice the highest concentration of the compound to be tested. From this concentrated stock, two-fold serial dilutions were prepared in 96-well microtiter trays, each well containing twice the desired final concentration of the compound. Each concentration was tested in triplicate and compared to triplicate drug-free controls.
(§3) The cells were grown in the same medium used for diluting the compounds. Adherent cells were harvested by trypsinization according to the following procedure:
(§4) After harvesting by trypsinization, viable cell counts were determined and cell density was adjusted to 25,000 cells/mL. Inoculum (0.1 mL) was then added to each well for a final concentration of 2,500 cells per well. Addition of the inoculum was used to dilute the test compounds to the desired concentration.
(§5) Microtiter trays were incubated for three days at 36° C. in a humidified atmosphere containing 5% carbon dioxide.
After three days, 20 microliters of 5 mg/mL MTT in phosphate-buffered solution were added to each well of the microtiter trays. The microtiter trays were then returned to the incubator for two to four hours to allow the surviving cells to reduce the dye. After this incubation, both the medium and the unreduced dye were removed by aspiration. DMSO was added to each well to dissolve the water-insoluble, colored end product of the dye reduction for spectrophotometric measurement at 570 nm. […]

[2] = system: P388-ADR(0.0), ADRIAMYCIN-resistant variant of P388; experiment: In vitro cytotoxicity (MTT), P388-ADR(0.0); format: cell-based; conditions: Mus musculus, 72 h, inoculum grown in drug-free medium, Table 2
Procedure: as §1, §2, §3, §4, §5
(§6) After three days, 20 microliters of 5 mg/mL MTT in phosphate-buffered solution were added to each well of the microtiter trays. The microtiter trays were then returned to the incubator for two to four hours to allow the surviving cells to reduce the dye. After this incubation, both the medium and the unreduced dye were removed by aspiration. DMSO was added to each well to dissolve the water-insoluble, colored end product of the dye reduction for spectrophotometric measurement at 570 nm.
(§7) Compounds from Examples 4, 6, 8, 9 and 10 were additionally tested against human and murine tumor cell lines A549, HT-29, P388-D1, P388, P388-ADR(0.0), P388-ADR(0.1) and B16F109. (P388 is a mouse leukemia cell line similar to P388-D1, but animal-passaged; P388-ADR (0.0) is an ADRIAMYCIN-resistant variant of P388, the inoculum of which is grown in drug-free medium; P388-ADR (0.1) is an ADRIAMYCIN-resistant variant of P388, the inoculum of which is grown in medium with 0.1 mcg.ml ADRIAMYCIN; and B16F10 is a mouse melanoma.) The results are presented in Table 2; as shown in the table, the compounds of the present invention are effective cytotoxic agents even against the ADRIAMYCIN-resistant cell line P388-ADR.

[3] = system: HT-29 human colon cancer cell line; experiment: In vitro cytotoxicity (MTT), HT-29; format: cell-based; conditions: HT-29, 72 h
Procedure: as §1, §2, §3, §4, §5, §6
(§8) The results obtained which clearly show the cytotoxicity of the compounds of Examples 5, 6, 7 and 8 against […] tumor cell lines A549, HCT-8, HT-29 and P388-D1, are illustrated in Table 1. (A549 is a human lung cancer cell line; HCT-8 is a human colon cancer cell line; HT-29 is a human colon cancer cell line; and P388-D1 is a mouse leukemia cell line.)

[4] = system: P388 mouse leukemia cell line; experiment: In vitro cytotoxicity (MTT), P388; format: cell-based; conditions: P388, 72 h, read-out: In Vitro Cytotoxicity (IC50)
Procedure: as §1, §2, §3, §4, §5, §6, §7

B16F10 mouse melanoma = experiment: In vitro cytotoxicity (MTT), B16F10; format: cell-based; conditions: B16-F10, 72 h, read-out: In Vitro Cytotoxicity (IC50)
Procedure: as §1, §2, §3, §4, §5, §6, §7

[5] = system: A549 human lung cancer cell line; experiment: In vitro cytotoxicity (MTT), A549; format: cell-based; conditions: A549, 72 h
Procedure: as §1, §2, §3, §4, §5, §6, §8

[6] = system: P388-D1 mouse leukemia cell line; experiment: In vitro cytotoxicity (MTT), P388-D1; format: cell-based; conditions: for IC50: Mus musculus, P388D1, 72 h, read-out: In Vitro Cytotoxicity (IC50), P388-D1
Procedure: as §1, §2, §3, §4, §5, §6, §8

[7] = system: HCT-8 human colon cancer cell line; experiment: In vitro cytotoxicity (MTT), HCT-8; format: cell-based; conditions: HCT-8, 72 h, read-out: In Vitro Cytotoxicity (IC50)
Procedure: as §1, §2, §3
as §4, with “concentration. […]” for “concentration.”

M5076 ovarian sarcoma = experiment: In vivo activity against M5076 ovarian sarcoma implanted subcutaneously; set-up: species or system mouse; conditions: IP every 2 days, days 1-11
Procedure: For M5076 ovarian sarcoma, the solid tumor was implanted subcutaneously into mice on day 0. The compound to be tested (the compound of Example 8) was administered IP every 2 days up to day 11, starting on day 1. Both % MST(T/C) and % MTM(T/C) values were calculated, and are presented below.

P388 ascitic leukemia = experiment: In vivo activity against systemic tumor P388; set-up: species or system mouse; conditions: five days
Procedure: Prior to testing, P388 was propagated intraperitoneally in female DBA2 mice. The ascitic tumors were intraperitoneally injected in female B6 D2 F1 mice at a concentration of 10^6 cells per mouse. The mice were treated with antiumor agents administered once daily for five consecutive days, with the antineoplastic 5-fluorouracil used as a positive control.
All drugs were administered intraperitoneally in 5% aqueous dextrose or other suitable diluent. Drug efficacy was evaluated based on prolongation of mean survival time (MST). Improvement of MST was calculated as % MST(T/C), the percent ratio of mean survival times of test (T) versus control (C) mice. Compounds having % MST(T/C) values greater than 125 are considered to have significant activity. The antitumor activity of the two compounds in the P388 systemic leukemia model is illustrated in Table 3 below.

Aqueous solubility = format: physicochemical; conditions: water
Text: The effect of peptidyl substitution on the solubility of the compounds of the invention was examined by dissolving samples thereof in water.

[8] = system: C-26 colon adenocarcinoma; experiment: In vivo activity against C-26 colon adenocarcinoma implanted IP (Example 42); set-up: species or system mouse; conditions: dose 40, IP days 1, 5, 9
Procedure: In the case of C-26 colon adenocarcinema, the tumor was implanted IP into mice on day 0. The compound to be tested. (the compound of Example 8) was administered IP at days 1, 5, and 9 and the results recorded on day 60. % MST(T/C) values were calculated as before and are shown below for two separate trials.

Lewis lung carcinoma = experiment: In vivo activity against Lewis lung carcinoma (subcutaneous); set-up: species or system mouse; conditions: IP days 1-9, tumor weight day 14
Procedure: Compound A and the compound of Example 8 were also tested against solid tumors, namely Lewis lung carcinoma on the one hand and C-26 colon adenocarcinoma and M5076 ovadan sarcoma on the other. Lewis lung carcinoma was inoculated subcutaneously to flanks of mice on day 0. The compound being tested (Compound A) was administered intraperitoneally (IP) from day 1 to day 9 for a total of nine injections. Tumor weights were measured on day 14 and drug efficacy assessed based on reduction of mean tumor mass (MTM), expressed as the percent ratio of treated (T) to control (C) MTM's. Compounds having % MTM(T/C) values of less than or equal to 40 are considered to have significant activity. These values are shown below in Table 4.

[9] = read-out: In Vitro Cytotoxicity (IC50), HT-29, Table 2, ADR: average of two tests
[10] = read-out: In Vitro Cytotoxicity (IC50), A549, Table 1, three day MTT assay
[11] = read-out: In Vitro Cytotoxicity (IC50), A549, Table 2, ADR: average of two tests
[12] = Table 2, ADR value marked *: single test

Cc1ccc2c(c1)Oc1c(N3CCC(N)C3)c(F)cc3c(=O)c(C(=O)O)cn-2c13 (stereo not drawn) [Example 6, 1-(3-aminopyrrolidin-1-yl)-2-fluoro-9-methyl-4-oxo-4H-quino[2,3,4-i,j][1,4]benzoxazine-5-carboxylic acid hydrochloride]
IC50 [1]: 0.2 µg/mL | IC50 [2]: 0.2 µg/mL | IC50 ([3]; read-out: In Vitro Cytotoxicity (IC50), HT-29, Table 1, three day MTT assay): 0.049 µg/mL | IC50 [3, 9]: 0.076 µg/mL | IC50 [4]: 0.071 µg/mL | IC50 (B16F10 mouse melanoma): 0.056 µg/mL | IC50 [5, 10]: 0.13 µg/mL | IC50 [5, 11]: 0.23 µg/mL | IC50 ([6]; Table 1, three day MTT assay): 0.067 µg/mL | IC50 [6, 12]: 0.08 µg/mL

Cc1ccc2c(c1)Oc1c(N3CCC(NC(=O)[C@H](C)N)C3)c(F)cc3c(=O)c(C(=O)O)cn-2c13 (stereo partly drawn) [Example 9, 1-(3-alanylaminopyrrolidin-1-yl)-2-fluoro-9-methyl-4-oxo-4H-quino[2,3,4-i,j][1,4]benzoxazine-5-carboxylic acid hydrochloride]
IC50 [1]: 0.18 µg/mL | IC50 [2]: 0.19 µg/mL | IC50 [3, 9]: 0.075 µg/mL | IC50 [4]: 0.062 µg/mL | IC50 (B16F10 mouse melanoma): 0.048 µg/mL | IC50 [5, 11]: 0.23 µg/mL | IC50 [6, 12]: 0.081 µg/mL

COc1cccc2c1C(=O)c1c(O)c3c(c(O)c1C2=O)C[C@@](O)(C(=O)CO)C[C@@H]3O[C@H]1C[C@H](N)[C@H](O)[C@H](C)O1 [ADR, doxorubicin hydrochloride, reference compound]
IC50 [1]: 1.9 µg/mL | IC50 [2]: 2.59 µg/mL | IC50 [3, 9]: 0.285 µg/mL | IC50 [7]: 0.038 µg/mL | IC50 [4]: 0.0022 µg/mL | IC50 (B16F10 mouse melanoma): 0.005 µg/mL | IC50 [5, 11]: 0.313 µg/mL | IC50 ([6]; Table 1, three day MTT assay): 0.016 µg/mL | IC50 [6, 12]: 0.025 µg/mL | In Vitro Cytotoxicity (IC50) ([6]; P388-D1, Table 1, three day MTT assay, 4320 min, hydrochloride): 0.010

CCC[C@H](N)C(=O)NC1CCN(c2c(F)cc3c(=O)c(C(=O)O)cn4c3c2Oc2ccccc2-4)C1 (stereo partly drawn) [Example 8, 1-(3-norvalylaminopyrrolidin-1-yl)-2-fluoro-4-oxo-4H-quino[2,3,4-i,j][1,4]benzoxazine-5-carboxylic acid hydrochloride]
M5706 % MST(T/C) (M5076 ovarian sarcoma; dose 5): 148.4% | M5706 % MTM(T/C) (M5076 ovarian sarcoma; dose 5): 62% | M5706 % MST(T/C) (M5076 ovarian sarcoma; dose 10): 154.4% | M5706 % MTM(T/C) (M5076 ovarian sarcoma; dose 10): 49% | M5706 % MST(T/C) (M5076 ovarian sarcoma; dose 20): 138.1% | M5706 % MTM(T/C) (M5076 ovarian sarcoma; dose 20): 22% | M5706 % MST(T/C) (M5076 ovarian sarcoma; dose 40): 39.1% | % MST(T/C) (P388 ascitic leukemia; 3.9 mg/kg IP once daily): 177.3% | % MST(T/C) (P388 ascitic leukemia; 7.81 mg/kg IP once daily): 200.0% | % MST(T/C) (P388 ascitic leukemia; 15.62 mg/kg IP once daily): 209.1% | % MST(T/C) (P388 ascitic leukemia; 31.25 mg/kg IP once daily): 63.6% | solubility (Aqueous solubility): 10700 µg/mL | IC50 [2]: 0.394 µg/mL | IC50 [3, 9]: 0.195 µg/mL | C-26 % MST(T/C) ([8]; first trial): 52.3% | C-26 % MST(T/C) ([8]; second trial): 43.9% | IC50 [7]: 0.075 µg/mL | IC50 [4]: 0.0395 µg/mL | IC50 (B16F10 mouse melanoma): 0.0271 µg/mL | IC50 [5, 10]: 0.512 µg/mL | IC50 [5, 11]: 0.591 µg/mL | IC50 ([6]; Table 1, three day MTT assay): < 0.05 µg/mL

NC1CCN(c2c(F)cc3c(=O)c(C(=O)O)cn4c3c2Oc2ccccc2-4)C1 (stereo not drawn) [Compound A, 1-(3-aminopyrrolidin-1-yl)-2-fluoro-4-oxo-4H-[2,3,4-i,j][1,4]benzoxazine-5-carboxylic acid]
% MST(T/C) (P388 ascitic leukemia; 6.25 mg/kg IP once daily): 160% | % MST(T/C) (P388 ascitic leukemia; 12.5 mg/kg IP once daily): 165% | % MST(T/C) (P388 ascitic leukemia; 25 mg/kg IP once daily): 170% | % MST(T/C) (P388 ascitic leukemia; 50 mg/kg IP once daily): 180% | solubility (Aqueous solubility): 8800 µg/mL (≈ 23100 µM) | IC50 [2]: 0.12 µg/mL (≈ 0.315 µM) | IC50 [3, 9]: 0.1 µg/mL (≈ 0.262 µM) | Lewis Lung % MTM(T/C) (Lewis lung carcinoma; dose 6.25): 68% | Lewis Lung % MTM(T/C) (Lewis lung carcinoma; dose 12.5): 67% | Lewis Lung % MTM(T/C) (Lewis lung carcinoma; dose 25): 47% | Lewis Lung % MTM(T/C) (Lewis lung carcinoma; dose 50): 41% | IC50 [4]: 0.019 µg/mL (≈ 0.0498 µM) | IC50 (B16F10 mouse melanoma): 0.021 µg/mL (≈ 0.0551 µM) | IC50 [5, 11]: 0.26 µg/mL (≈ 0.682 µM)
